In PubChem BioAssay (NCI) one finds TGI and GI50 data, which are given here for 14 compounds.

Assay in all cases: DTP human tumour cell line panel, 48 h
For assay [1], the system named is HCT-116 colon.
Assay [2] relates to SF-295 CNS.
The subject of assay [3] is M14 melanoma.
For assay [4], the system named is BT-549 breast.
The subject of assay [5] is SF-539 CNS.
The subject of assay [6] is ACHN renal.
The subject of assay [7] is SN12C renal.
The test system of assay [8] is UACC-62 melanoma.
Assay [9] deals with SK-MEL-2 melanoma.
The test system of assay [10] is SNB-19 CNS.
The subject of assay [11] is RPMI-8226 leukemia.

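Values below derive from 48-hour exposures of cells grown in 96-well plates, with endpoints linearly interpolated between the two concentrations bracketing the appropriate inhibition level. GI50 = concentration required for 50% inhibition of growth. TGI is the concentration that stops growth completely.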 *1 amine or outer side, *2 acyl side, *3 side chain or, on linkers, in order; H or OH if unused. Where a SMILES comes first, the peptide text is derived from it. Bridges are numbered along the chain shown (N, C = ends). Roman numbers before positions name the chains, in order. [ ]: non-standard residue; d: D form. Actinocin(9to1) = Cc1c2oc3c(C)ccc(C(=O)[*:1])c3nc-2c(C(=O)[*:2])c(N)c1=O; Hyp = O=C(O)[CH]1C[CH](O)CN1; NMeV = CN[CH](C(=O)O)C(C)C; Sar = CNCC(=O)O

As a reminder, the TGI is the concentration at which net growth stops. The low end stands for more potent growth arrest, the high end for less potent growth arrest. On to `COC(=O)c1c(C)cccc1C1CN=NC12Cc1cc(C)cc(C)c1C2=O` (stereo not given), for which the total growth inhibition concentration (TGI) in [1], in [2], in [3], in assay [4], in assay [5] and in assay [6] was over 100 µM in each case. In addition, the total growth inhibition concentration (TGI) in assay [7], in assay [8], in assay [9] and in [10] was over 100 µM each time.

With `CCOC(=O)CCN1C(=O)C(=O)N(c2ccc(OC)cc2)C1=S`, the total growth inhibition concentration (TGI) in assay [1] was over 100 µM; in [2], over 100 µM; in [5], over 100 µM; in assay [6], over 100 µM; in [7] it was over 100 µM; in [8], 48.5 µM. In addition, the concentration for total growth inhibition (TGI) in assay [9], in assay [10] and in assay [11] was over 100 µM in each case.

For `COc1cc2c(cc1Oc1c(Oc3c(O)c(OC)cc4c3C(CC(C)C)N(C)CC4)c(OC)cc3c1C(CC(C)C)N(C)CC3)C(CC(C)C)N(C)CC2` (stereo not given), the concentration for total growth inhibition (TGI) stood at 3.85 µM in assay [1]; 5.04 µM in assay [2]; 1.45 µM in [5]; 3.53 µM in assay [7]; 4.02 µM in assay [8]; 3.67 µM in [9]. The TGI in [10] stood at 2.18 µM; in assay [11] it was 10.4 µM.

Take `COc1cc2cc(C(=O)N3CC(CCl)c4ccc(N(C)C)cc43)[nH]c2c(OC)c1OC` (stereo not given): the total growth inhibition concentration (TGI) stood at 0.726 µM in [2]; 0.237 µM in assay [3]; 1.33 µM in [4]; 0.2 µM in [5]; 0.531 µM in assay [7]; 0.524 µM in assay [8]. Also, the TGI was found to be 0.128 µM in assay [9] and 8.21 µM in assay [10].

Regarding `Nn1c(=O)[nH]c2ncn(Cc3ccccc3)c2c1=O`, the TGI in [1], in assay [2], in assay [3], in assay [4], in [5] and in assay [6] was over 100 µM each time. Further, the TGI in assay [7], in [8], in assay [9] and in assay [10] was over 100 µM in each case.

For `Cc1c2oc3c(C)ccc(C(=O)NC4C(=O)NC(C(C)C)C(=O)N5CC(O)CC5C(=O)N(C)CC(=O)N(C)C(C(C)C)C(=O)OC4C)c3nc-2c(C(=O)NC2C(=O)NC(C(C)C)C(=O)N3CC(O)CC3C(=O)N(C)CC(=O)N(C)C(C(C)C)C(=O)OC2C)c(N)c1=O` (stereo not given) (I: TV[Hyp][Sar][NMeV] / II: TV[Hyp][Sar][NMeV]; ester I:1-I:C, II:1-II:C; linker I:N-II:N via Actinocin(9to1); configuration not given here), the concentration for total growth inhibition (TGI) in [1], in [2], in assay [3], in [5], in assay [6] and in assay [7] was over 1 µM each time. For the same compound, the total growth inhibition concentration (TGI) in [9], in assay [10] and in assay [11] was over 1 µM in each case.

As to `O=C(O)/C(=C\c1ccc(O)cc1)c1cccc2ccccc12`, the TGI in assay [1], in [2], in assay [3], in assay [4], in [6] and in assay [7] was over 100 µM in each case. The TGI in assay [8], in assay [9] and in assay [10] was over 100 µM throughout.

As to `COC(=O)C(Cc1ccc(N(C)C)cc1)(NC(=O)c1ccccc1)P(=O)(OC)OC` (stereo not given), the TGI in [1], in assay [2], in assay [3], in assay [5], in assay [6] and in [7] was over 100 µM each time. Further, the total growth inhibition concentration (TGI) in [8], in assay [9], in assay [10] and in assay [11] was over 100 µM in each case.

One may read the GI50 as the concentration at which growth is held to half of that of the control. `CCCCCCCCCCCCCC[n+]1ccc(C(N)=O)cc1`: the GI50 in assay [2] was 1.76 µM; in [6], 3.47 µM; in assay [7], 3.2 µM; in assay [8] it was 1.9 µM; in assay [11] it was 0.731 µM. Besides, the concentration for total growth inhibition (TGI) in [2] came to 5.06 µM; in assay [6], 15.9 µM; in assay [7], 10.6 µM; in [8] it was 4.65 µM; in [11], 3.03 µM.

Regarding `COC1=CC(=O)C=C(OC)C1=O`, the TGI came out at 15.1 µM in [1]; 34.6 µM in assay [2]; 37.8 µM in assay [5]; 35.1 µM in assay [7]; 11.6 µM in [8]; 17.7 µM in assay [9]. Besides, the TGI worked out at 27 µM in [10] and 20.5 µM in [11].

Consider `COc1c(Br)cc2ccccc2c1-c1c(OC)c(Br)cc2ccccc12`, for which the TGI in assay [2], in assay [3], in assay [5], in assay [6], in assay [8] and in [9] was over 100 µM each time. Besides, the TGI in [10] and in [11] was over 100 µM throughout.

Regarding `COC(=O)CNC(=O)CCC(C)[C@H]1CCC2C3C(C[C@H](OC(C)=O)[C@@]21C)[C@@]1(C)CCC2(C[C@H]1C[C@H]3OC(C)=O)OOC1(CC[C@]3(C)C4C[C@H](OC(C)=O)[C@@]5(C)C(CC[C@@H]5C(C)CCC(=O)NCC(=O)OC)C4[C@H](OC(C)=O)C[C@@H]3C1)OO2` (stereo not given in full), the TGI was 9.1 µM in assay [1]; 24.7 µM in assay [2]; 7.96 µM in assay [3]; over 50 µM in [4]; 1.8 µM in assay [5]; 1.57 µM in [6]. In addition, the values for the concentration for total growth inhibition (TGI) in assay [9] and in assay [10] were 1.66 µM and over 50 µM, respectively.

As for `COC(=O)C(Cc1c[nH]c2ccccc12)NP(=O)(O)OCC1OC(n2cc(Br)c(=O)[nH]c2=O)CC1O` (stereo not given), the TGI in assay [1], in [2], in [3], in assay [4], in [5] and in [6] was over 100 µM in each case. Further, the TGI in [7], in [8], in assay [9] and in assay [10] was over 100 µM throughout.

Take `O=C(Nc1ccccc1Cl)c1ccc([N+](=O)[O-])cc1`: the total growth inhibition concentration (TGI) in assay [2], in assay [3], in [5], in assay [7], in assay [8] and in [9] was over 100 µM throughout. Besides, the concentration for total growth inhibition (TGI) in [10] and in assay [11] was over 100 µM in each case.
